Reference: PMC5723705, “Identification of an antibody‐based immunoassay for measuring direct target binding of RIPK1 inhibitors in cells and tissues” (Pharmacology Research & Perspectives, 2017)

Tests used:
[1] = target: T1, RIPK1 (Receptor-interacting serine/threonine-protein kinase 1) (Homo sapiens, UniProt Q13546); assay: TEAR1 target engagement immunoassay (FREE-RIPK1/TOTAL-RIPK1) in HT29 cells; format: cell-based
T1 sequence (Q13546 1-671): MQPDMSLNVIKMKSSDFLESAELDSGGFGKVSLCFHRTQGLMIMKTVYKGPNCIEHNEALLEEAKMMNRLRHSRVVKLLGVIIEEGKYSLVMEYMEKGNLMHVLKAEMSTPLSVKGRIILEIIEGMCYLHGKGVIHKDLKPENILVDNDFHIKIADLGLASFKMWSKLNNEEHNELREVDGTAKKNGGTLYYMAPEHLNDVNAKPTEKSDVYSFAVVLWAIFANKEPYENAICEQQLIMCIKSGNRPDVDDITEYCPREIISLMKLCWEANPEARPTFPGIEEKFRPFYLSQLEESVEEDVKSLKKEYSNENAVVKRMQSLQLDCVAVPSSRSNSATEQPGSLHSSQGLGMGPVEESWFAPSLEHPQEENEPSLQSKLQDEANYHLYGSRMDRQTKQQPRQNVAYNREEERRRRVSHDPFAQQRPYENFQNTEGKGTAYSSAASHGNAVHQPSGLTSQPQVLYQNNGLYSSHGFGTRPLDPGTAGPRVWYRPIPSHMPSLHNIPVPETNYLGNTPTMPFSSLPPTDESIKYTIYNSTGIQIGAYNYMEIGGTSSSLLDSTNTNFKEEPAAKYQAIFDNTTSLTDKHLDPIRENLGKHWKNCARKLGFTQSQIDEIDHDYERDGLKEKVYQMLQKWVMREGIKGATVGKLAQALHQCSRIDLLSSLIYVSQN

[2] = test system: RIPK1 (Receptor-interacting serine/threonine-protein kinase 1); assay: TEAR1 target engagement immunoassay in monkey whole blood and tissues after IV dosing; parameters: species or system Macaca fascicularis

## GSK3011253 [GSK'253]
[1]
  IC50: 0.5 nM
[2]
  IC50: 3.1 ng/mL
